Reference: the SangsterLogP compilation

Row | SMILES | logP
1 | C/C=C(\CC)C1(C(C)C)C(=O)NC(=O)NC1=O | 1.95
2 | CC=C(CCCC)C1(C)C(=O)NC(=O)NC1=O | 2.15
3 | C=C(C)C1(CCCC)C(=O)NC(=O)NC1=O | 1.65
4 | C/C=C(\CC)C1(CC)C(=O)NC(=O)NC1=O | 1.65
5 | C/C=C(\CC)C1(CCC)C(=O)NC(=O)NC1=O | 2.15
6 | CC=C(CCC)C1(C)C(=O)NC(=O)NC1=O | 1.65
7 | C/C=C(/C)C1(CC)C(=O)NC(=O)NC1=O | 1.15
8 | CC=C(CCC)C1(CC)C(=O)NC(=O)NC1=O | 2.15
9 | C=C(C)C1(CC)C(=O)NC(=O)NC1=O | 0.65
10 | CC/C=C(\C)C1(C)C(=O)NC(=O)NC1=O | 1.15
11 | C/C=C(\CC)C1(C)C(=O)NC(=O)NC1=O | 1.15
12 | C/C=C(\C)C1(C)C(=O)NC(=O)NC1=O | 0.65
13 | C/C=C(\C)C1(CCC)C(=O)NC(=O)NC1=O | 1.65
14 | C=C(C)C1(CC(C)C)C(=O)NC(=O)NC1=O | 1.45
15 | CC=C(C(C)C)C1(C)C(=O)NC(=O)NC1=O | 1.45
16 | C=C(C)C1(CCC(C)C)C(=O)NC(=O)NC1=O | 1.95
17 | CCCC=C(CC)C1(CC)C(=O)NC(=O)NC1=O | 2.65
18 | C=CCC1(/C(C)=C/C)C(=O)NC(=O)NC1=O | 2.15
19 | CC/C=C(/C)C1(CCC)C(=O)NC(=O)NC1=O | 2.15
20 | C=C(C)C1(C)C(=O)NC(=O)NC1=O | 0.15
21 | CC=C(CCCC)C1(CCC)C(=O)NC(=O)NC1=O | 2.65
22 | CC/C=C(\C)C1(C(C)C)C(=O)NC(=O)NC1=O | 1.95
23 | CC/C=C(\C)C1(CC)C(=O)NC(=O)NC1=O | 1.65
24 | C=C(C)C1(CCCCC)C(=O)NC(=O)NC1=O | 2.15
25 | C=C(C)C1(CCC)C(=O)NC(=O)NC1=O | 1.15
